# Assay results as given in patent publication US11123311B2, “Methods of treating mental disorders” (The Regents of the University of California, priority 2016, dated 2021).
# What was measured:
# [1] = test system: mice after social defeat stress; details: single dose; literature (37,39); cited from earlier work
# experimental logP = format: physicochemical; details: read-out: Exp/ logP
# sEH [2] = molecular target: T1, sEH (Homo sapiens (Human), UniProt P34913)
# in vivo = details: mouse, po, 3 mg/kg, 3 mg/kg PO, mice
# TNF-α = experiment: serum TNF-α after LPS administration; format: in vivo; details: TPPU 3.0 mg/kg PO
# Description: Inflammation model of depression. The procedure of inflammation model of depression was performed as previously reported (36). Behavioral tests were performed 24 hours after a single administration of LPS (0.5 mg/kg). […] Serum sample was collected 90 min after LPS administration, and serum levels of TNF-α were measured using a Ready-SET-Go ELISA kit (eBioscience Inc., San Diego, Calif.), according to manufacturer's instructions. […] Behavioral tests including locomotion (LMT), tail suspension test (TST), and forced swimming test (FST) were performed 1, 3, and 5 hours after administration. […] Behavioral tests including LMT, TST, and FST were performed 24, 26, and 28 hours after administration of LPS.
# [3] = 3 mg/kg PO; mice
# [4] = test system: LPS-treated depressed mice; details: literature (36); cited from earlier work
# astrocyte = details: literature (54); cited from earlier work
# neuronal cell cultures = details: literature (34); cited from earlier work
# PC12 cells = experiment: NGF-induced neurite outgrowth in PC12 cells; format: cell-based; details: TPPU 0.1, 1.0 or 10 μM, 14,15-EET 0.01, 0.1 or 1.0 μM, concentration dependent
# Description: PC12 cells (RIKEN Cell Bank, Tsukuba, Japan) were cultured at 37° C., 5% CO2 in Dulbecco's modified Eagle's medium (DMEM), supplemented with 5% heat-inactivated fetal bovine serum (FBS), 10% heat-inactivated horse serum, and 1% penicillin-streptomycin. Medium was changed two to three times a week. PC12 cells were plated onto 24-well tissue culture plates coated with poly-D-lysine/laminin. Cells were plated at relatively low density (0.25×10^4 cells/cm^2) in DMEM medium containing 0.5% FBS, 1% penicillin-streptomycin. Medium containing a minimal level of serum (0.5% FBS) was used as previously reported (58-60). […]. Four days after incubation with NGF (2.5 ng/ml) with or without specified compounds, morphometric analysis was performed on digitized images of live cells taken under phase-contrast illumination, with an inverted microscope linked to a camera. Images of three fields per well were taken, with an average of 100 cells per field. Differentiated cells were counted by visual examination of the field; only cells that had at least one neurite with a length equal to the cell body diameter were counted, and were then expressed as a percentage of the total cells in the field. Counting was performed in a blinded manner.
# sEH [5] = molecular target: T1, sEH; experiment: inhibition of sEH (standard assays); format: biochemical
# Text: Any of a number of standard assays for determining epoxide hydrolase activity can be used to determine inhibition of sEH. […] Suitable in vitro assays are described in Zeldin et al., J Biol. Chem. 268:6402-6407 (1993). Suitable in vivo assays are described in Zeldin et al., Arch Biochem Biophys 330:87-96 (1996).
# The enzyme also can be detected based on the binding of specific ligands to the catalytic site which either immobilize the enzyme or label it with a probe such as dansyl, fluoracein, luciferase, green fluorescent protein or other reagent. The enzyme can be assayed by its hydration of EETs, its hydrolysis of an epoxide to give a colored product as described by Dietze et al., 1994, supra, or its hydrolysis of a radioactive surrogate substrate (Borhan et al., 1995, supra). The enzyme also can be detected based on the generation of fluorescent products following the hydrolysis of the epoxide. Numerous methods of epoxide hydrolase detection have been described (see, e.g., Wixtrom, supra).
# The assays are normally carried out with a recombinant enzyme following affinity purification. They can be carried out in crude tissue homogenates, cell culture or even in vivo, as known in the art and described in the references cited above.
# T1 sequence (P34913 whole entry): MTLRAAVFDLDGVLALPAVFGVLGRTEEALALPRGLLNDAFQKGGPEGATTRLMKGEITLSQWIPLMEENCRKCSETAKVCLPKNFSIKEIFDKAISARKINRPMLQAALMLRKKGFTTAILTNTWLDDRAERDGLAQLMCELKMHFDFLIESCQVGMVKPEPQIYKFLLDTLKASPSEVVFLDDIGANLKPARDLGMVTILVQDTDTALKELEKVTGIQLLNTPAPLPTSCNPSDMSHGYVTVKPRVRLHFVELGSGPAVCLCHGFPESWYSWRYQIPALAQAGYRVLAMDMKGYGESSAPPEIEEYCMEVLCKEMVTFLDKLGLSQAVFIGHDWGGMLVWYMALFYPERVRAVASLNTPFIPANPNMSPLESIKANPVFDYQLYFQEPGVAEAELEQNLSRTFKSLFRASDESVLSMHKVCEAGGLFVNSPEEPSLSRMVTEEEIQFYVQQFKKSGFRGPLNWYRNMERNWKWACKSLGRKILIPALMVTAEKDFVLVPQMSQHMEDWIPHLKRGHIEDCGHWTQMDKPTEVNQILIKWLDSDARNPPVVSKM
structure (smiles),measurement,setting,value
CNC1(c2ccccc2Cl)CCCCC1=O (stereo not drawn) [ketamine],antidepressant effect in the social defeat stress model,[1],rapid antidepressant effect
CC[C@H](C)C(=O)N1CCC(NC(=O)Nc2ccc(C(F)(F)F)nc2)CC1 [Compound 42],logP,experimental logP,3.22
same,t1/2 (human sEH),sEH [2],0.0617 h
O=C(Nc1ccc(OC(F)(F)F)cc1)NC1CCN(C(=O)C2(C(F)(F)F)CC2)CC1 [Compound 28],logP,experimental logP,4.63
CC(C)C(=O)N1CCC(NC(=O)Nc2ccc(OC(F)(F)F)cc2)CC1 [Compound 2389],logP,experimental logP,3.37
same,t1/2 (human sEH),sEH [2],0.3 h
CCC(=O)N1CCC(NC(=O)Nc2ccc(OC(F)(F)F)cc2)CC1 [TPPU],half-life,in vivo; half-life in the blood (plasma),17.8 h
same,half-life,in vivo; half-life in the cerebral cortex,10.7 h
same,serum levels of TNF-α in control mice,TNF-α,no effect
same,half-life in the blood (plasma),[3],17.8 h
same,half-life in the cerebral cortex,[3],10.7 h
CN[C@@]1(c2ccccc2Cl)CCCCC1=O [R-ketamine],antidepressant effect in the social defeat stress model,[1],rapid antidepressant effect
Fc1ccc([C@@H]2CCNC[C@H]2COc2ccc3c(c2)OCO3)cc1 [paroxetine],effect in the LPS-induced inflammation model of depression,[4],do not have any effect
"CCCCCC1OC1C/C=C\C/C=C\C/C=C\CCCC(=O)O (stereo not drawn) [14,15-EET]",production of BDNF,astrocyte,promote the production of BDNF
same,axonal growth,neuronal cell cultures,enhance axonal growth
same,NGF-induced neurite outgrowth,PC12 cells,potentiated
"CCCCCCCCCCCCNC(=O)NC12CC3CC(CC(C3)C1)C2 [ADU, N-Adamantyl-N′-dodecyl urea]",activity as an inhibitor of sEH,sEH [5],particularly high activity
COc1ccc(C(CN(C)C)C2(O)CCCCC2)cc1 (stereo not drawn) [venlafaxine],effect in the LPS-induced inflammation model of depression,[4],do not have any effect
